System: production of TNF by monocytes activated with bacterial lipopolysaccharide (LPS)
Experiment: Lipopolysaccharide-activated monocyte TNF production assay
Type: cell-based
Conditions: Homo sapiens; whole blood monocyte assay (LPS induced TNF release)
Summary of the method: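 Adherent human PBMC-derived monocytes preincubated 60 min with nine two-fold compound dilutions, then stimulated with E. coli K532 LPS (30 ng/mL in the added medium) for 4 h at 37 °C. Supernatant TNF measured by sandwich ELISA; IC50 is the compound concentration halving TNF production, from second-order polynomial fits.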

Structure (SMILES) | IC50 [µM]
Cc1ccc(C(N)=O)cc1-c1ccc2c(N3C[C@H](C)N(CC(F)(F)F)C[C@H]3C)nncc2c1 [Example 368, 3-{1-[(2R,5S)-2,5-dimethyl-4-(2,2,2-trifluoroethyl)piperazin-1-yl]phthalazin-6-yl}-4-methylbenzamide] | ≤ 5
Cc1ccc(C(=O)NC2CC2)cc1-c1ccc2c(NC(C)c3ccccn3)nncc2c1 (stereo not shown) [Example 369, N-cyclopropyl-4-methyl-3-{1-[(1-pyridin-2-ylethyl)amino]phthalazin-6-yl}benzamide] | ≤ 5
Cc1ccc2c(NC3CC3)noc2c1-c1ccc2c(NC(C)C)nncc2c1 [Example 370, 6-[3-(cyclopropylamino)-6-methyl-1,2-benzisoxazol-7-yl]-N-isopropylphthalazin-1-amine] | ≤ 5
CC(=O)N1CCN(c2nncc3cc(-c4cc(C(=O)NC5CC5)ccc4C)ccc23)[C@@H](C)C1 [Example 371, 3-{1-[(2S)-4-acetyl-2-methylpiperazin-1-yl]phthalazin-6-yl}-N-cyclopropyl-4-methylbenzamide] | ≤ 5
CNc1noc2c(-c3ccc4c(NC(C)C)nncc4c3)c(C)ccc12 [Example 372, N-isopropyl-6-[6-methyl-3-(methylamino)-1,2-benzisoxazol-7-yl]phthalazin-1-amine] | ≤ 5
CNc1noc2c(-c3ccc4c(N5CCOC[C@H]5C)nncc4c3)c(C)ccc12 [Example 373, N,6-dimethyl-7-{1-[(3R)-3-methylmorpholin-4-yl]phthalazin-6-yl}-1,2-benzisoxazol-3-amine] | ≤ 5
Cc1ccccc1-c1nncc2cc(-c3c(C)ccc4c(NC5CC5)noc34)ccc12 [Example 374, N-cyclopropyl-6-methyl-7-[1-(2-methylphenyl)phthalazin-6-yl]-1,2-benzisoxazol-3-amine] | ≤ 5
COc1ncccc1-c1ccc2c(-c3cccnc3OC)nncc2c1 [Example 375, 1,6-bis(2-methoxypyridin-3-yl)phthalazine] | ≤ 5
Cc1ccc(C(=O)NC2CC2)cc1-c1ccc2c(N3C[C@H](C)N(CC(F)(F)F)C[C@H]3C)nncc2c1 [Example 376, N-cyclopropyl-3-{1-[(2R,5S)-2,5-dimethyl-4-(2,2,2-trifluoroethyl)piperazin-1-yl]phthalazin-6-yl}-4-methylbenzamide] | ≤ 5
Cc1cc(F)ccc1-c1nncc2cc(-c3c(C)ccc4c(NC5CC5)noc34)ccc12 [Example 377, N-cyclopropyl-7-[1-(4-fluoro-2-methylphenyl)phthalazin-6-yl]-6-methyl-1,2-benzisoxazol-3-amine] | ≤ 5
Cc1ccccc1-c1nncc2cc(-c3c(C)ccc(C(=N)NC4CC4)c3O)ccc12 [Example 378, N-cyclopropyl-2-hydroxy-4-methyl-3-[1-(2-methylphenyl)phthalazin-6-yl]benzenecarboximidamide] | ≤ 5
CCOC(=O)N1CCN(c2nncc3cc(-c4cc(C(=O)NC5CC5)ccc4C)ccc23)[C@@H](C)C1 [Example 379, ethyl(3S)-4-(6-{5-[(cyclopropylamino)carbonyl]-2-methylphenyl}phthalazin-1-yl)-3-methylpiperazine-1-carboxylate] | ≤ 5
Cc1cc(NC(=O)c2ccc(C)c(-c3ccc4c(N5CCOCC5)nncc4c3)c2)no1 [Example 380, 4-methyl-N-(5-methylisoxazol-3-yl)-3-(1-morpholin-4-ylphthalazin-6-yl)benzamide] | ≤ 5
Cc1ccc2c(NC(C)(C)C)noc2c1-c1ccc2c(N3CCOC[C@@H]3C)nncc2c1 [Example 381, N-(tert-butyl)-6-methyl-7-{1-[(3S)-3-methylmorpholin-4-yl]phthalazin-6-yl}-1,2-benzisoxazol-3-amine] | ≤ 5
Cc1cc(F)ccc1-c1nncc2cc(-c3ccc(Cl)c4c(NC5CC5)noc34)ccc12 [Example 382, 4-chloro-N-cyclopropyl-7-[1-(4-fluoro-2-methylphenyl)phthalazin-6-yl]-1,2-benzisoxazol-3-amine] | ≤ 5
CC(=O)N1CCN(c2nncc3cc(-c4cc(C(N)=O)ccc4C)ccc23)[C@@H](C)C1 [Example 383, 3-{1-[(2S)-4-acetyl-2-methylpiperazin-1-yl]phthalazin-6-yl}-4-methylbenzamide] | ≤ 5
CCNc1noc2c(-c3ccc4c(N5CCOC[C@@H]5C)nncc4c3)c(C)ccc12 [Example 384, N-ethyl-6-methyl-7-{1-[(3S)-3-methylmorpholin-4-yl]phthalazin-6-yl}-1,2-benzisoxazol-3-amine] | ≤ 5
Cc1ccc2c(N)noc2c1-c1ccc2c(NC(C)C)nncc2c1 [Example 385, 6-(3-amino-6-methyl-1,2-benzisoxazol-7-yl)-N-isopropylphthalazin-1-amine] | ≤ 5
Cc1ccccc1-c1ccc2c(-c3ccccc3C)nncc2c1 [Example 386, 1,6-bis(2-methylphenyl)phthalazine] | ≤ 5
Cc1ccc2c(N)noc2c1-c1ccc2c(N3CCOC[C@@H]3C)nncc2c1 [Example 387, 6-methyl-7-{1-[(3S)-3-methylmorpholin-4-yl]phthalazin-6-yl}-1,2-benzisoxazol-3-amine] | ≤ 5
Cc1ccc2c(NC3CC3)noc2c1-c1ccc2c(N3CCOCC3)nncc2c1 [Example 388, N-cyclopropyl-6-methyl-7-(1-morpholin-4-ylphthalazin-6-yl)-1,2-benzisoxazol-3-amine] | ≤ 5
CCNc1noc2c(-c3ccc4c(NC(C)C)nncc4c3)c(C)ccc12 [Example 389, 6-[3-(ethylamino)-6-methyl-1,2-benzisoxazol-7-yl]-N-isopropylphthalazin-1-amine] | ≤ 5
CC(=O)N1CCN(c2nncc3cc(-c4c(C)ccc5c(NC6CC6)noc45)ccc23)[C@@H](C)C1 [Example 390, 7-{1-[(2S)-4-acetyl-2-methylpiperazin-1-yl]phthalazin-6-yl}-N-cyclopropyl-6-methyl-1,2-benzisoxazol-3-amine] | ≤ 5
Cc1ccc2c(N)n[nH]c2c1-c1ccc2c(N3CCOC[C@@H]3C)nncc2c1 [Example 391, 6-methyl-7-{1-[(3S)-3-methylmorpholin-4-yl]phthalazin-6-yl}-1H-indazol-3-amine] | ≤ 5
Cc1ccc(C(=O)NC2CC2)cc1-c1ccc2c(N3C[C@@H](C)N(CC(F)(F)F)C[C@@H]3C)nncc2c1 [Example 393, N-cyclopropyl-3-{1-[(2S,5R)-2,5-dimethyl-4-(2,2,2-trifluoroethyl)piperazin-1-yl]phthalazin-6-yl}-4-methylbenzamide] | ≤ 5
Cc1ccc(C(N)=O)cc1-c1ccc2c(N3[C@H](C)CC[C@H]3C)nncc2c1 [Example 394, 3-{1-[(2R,5R)-2,5-dimethylpyrrolidin-1-yl]phthalazin-6-yl}-4-methylbenzamide] | ≤ 5
Cc1ccc(C(=O)NC2CC2)cc1-c1ccc2c(N3[C@H](C)CC[C@H]3C)nncc2c1 [Example 395, N-cyclopropyl-3-{1-[(2R,5R)-2,5-dimethylpyrrolidin-1-yl]phthalazin-6-yl}-4-methylbenzamide] | ≤ 5
CNc1noc2c(-c3ccc4c(-c5ccccc5C)nncc4c3)c(C)ccc12 [Example 396, N,6-dimethyl-7-[1-(2-methylphenyl)phthalazin-6-yl]-1,2-benzisoxazol-3-amine] | ≤ 5
